Assay [1] has as its system male spontaneously hypertensive rats (SHR). The assay can be described thus: Reduction of Blood Pressure (systolic, tail plethysmographic method, oral). In kind it is in vivo, rat (SHR, Wister Kyoto). As for the experimental part:
Male spontaneously hypertensive rats (SHR, Wister Kyoto) weighing 300 to 350 g were used. Systolic blood pressure was measured indirectly by the tail plethysmographic method in conscious SHR, just prior to, and 1, 2, 4 and 6 hours after oral administration of test drugs. Test drugs, dissolved in deionized water, were administered orally in a volume of 10 ml-solution/kg-rat. Reduction in systolic blood pressure (ΔP, mmHg) was calculated by substracting a systolic blood pressure after administration from that just prior to administration.
Effect of the compounds of the present invention on reduction of blood pressure was examined according to the method as mentioned hereinbefore.

Assay [2] has as its system mesenteric artery of a rabbit. The assay can be described thus: Relaxation of Mesenteric Artery (KCl-contracted spiral strip). More on the design: species or system rabbit of Japanese local variety. The following applies: Oryctolagus cuniculus; concentration of the hydrochloride attaining 50% of complete relaxation; rabbit mesenteric artery contracted with KCl; read-out: ED50 (the source's name). The method, then: A rabbit of Japanese local variety weighing about 3 kg was subjected to blood-letting to death. Then, abdomen of the rabbit was dissected to pick up a mesenteric artery. […] Thus, the shrinkage and relaxation of the artery was ready to be measured as a load on the transducer. To the organ bath, KCl was added in an amount which makes the artery shrink at a half length that in 15 to 20 mM aqueous solution. Then, hydrochlorides of the compounds of the present invention were added to the organ bath to observe relaxation effect on the artery.
Effect of the compounds of the present invention on relaxation of mesenteric artery was examined according to the method as mentioned hereinbefore.

`CC1CN(S(=O)(=O)c2cccc3c(Cl)nccc23)CCN1` (centres unmarked) [Compound (38), 1-(1-chloro-5-isoquinolinesulfonyl)-3-methylpiperazine]: the “ΔPmax (maximally reduced blood pressure)” value in assay [1] (100 mg/kg) is listed as 45 mmHg. In assay [2], the EC50 is 17 µM.
Taken in the same sequence, the figures for `CCC1CN(S(=O)(=O)c2cccc3c(Cl)nccc23)CCN1` (centres unmarked) [Compound (39), 1-(1-chloro-5-isoquinolinesulfonyl)-3-ethylpiperazine] were 48 mmHg and 18 µM.
With `CC(C)CC1CN(S(=O)(=O)c2cccc3c(Cl)nccc23)CCN1` (centres unmarked) [Compound (40), 1-(1-chloro-5-isoquinolinesulfonyl)-3-isobutylpiperazine], in assay [1] (100 mg/kg), the “ΔPmax (maximally reduced blood pressure)” value stood at 51 mmHg. Further, the EC50 in assay [2] worked out at 13 µM.
In the case of `CC1CN(S(=O)(=O)c2cccc3c(Cl)nccc23)C(C)CN1` (centres unmarked) [Compound (41), 1-(1-chloro-5-isoquinolinesulfonyl)-2,5-dimethylpiperazine], the “ΔPmax (maximally reduced blood pressure)” value in assay [1] (100 mg/kg) worked out at 39 mmHg. Moreover, the EC50 in assay [2] is 14 µM.
Taken in the same sequence, the figures for `CN1CCN(S(=O)(=O)c2cccc3c(Cl)nccc23)CC1` [Compound (42), 1-(1-chloro-5-isoquinolinesulfonyl)-4-methylpiperazine] were 56 mmHg and 21 µM.
For `N=C(N)N1CCN(S(=O)(=O)c2cccc3c(Cl)nccc23)CC1` [Compound (43), 1-(1-chloro-5-isoquinolinesulfonyl)-4-amidinopiperazine] the same measures were 32 mmHg and 2 µM.
Taken in the same sequence, the figures for `N=C(N)N1CCCN(S(=O)(=O)c2cccc3c(Cl)nccc23)CC1` [Compound (44), 1-(1-chloro-5-isoquinolinesulfonyl)-4-amidinohomopiperazine] were 25 mmHg and 4 µM.
For the compound `CC1CN(C(=N)N)CCN1S(=O)(=O)c1cccc2c(Cl)nccc12` (centres unmarked) [Compound (45), 1-(1-chloro-5-isoquinolinesulfonyl)-4-amidino-2-methylpiperazine], in assay [1] (100 mg/kg), the “ΔPmax (maximally reduced blood pressure)” value amounted to 37 mmHg. Also, the EC50 in assay [2] turned out to be 3 µM.
Taken in the same sequence, the figures for `CC1CN(S(=O)(=O)c2cccc3c(Cl)nccc23)C(C)CN1C(=N)N` (centres unmarked) [Compound (46), 1-(1-chloro-5-isoquinolinesulfonyl)-4-amidino-2,5-dimethylpiperazine] were 41 mmHg and 5 µM.
For the compound `NCCNS(=O)(=O)c1cccc2c(O)nccc12` [Compound (47), N-(2-aminoethyl)-1-hydroxy-5-isoquinolinesulfonamide], the “ΔPmax (maximally reduced blood pressure)” value in assay [1] (50 mg/kg) is recorded as 43 mmHg. For the same compound, the EC50 in assay [2] turned out to be 10 µM.
For `NCCCCNS(=O)(=O)c1cccc2c(O)nccc12` [Compound (48), N-(4-aminobutyl)-1-hydroxy-5-isoquinolinesulfonamide], the “ΔPmax (maximally reduced blood pressure)” value in assay [1] (100 mg/kg) stood at 51 mmHg. Besides, the EC50 in assay [2] came to 15 µM.
`CC(CN)NS(=O)(=O)c1cccc2c(O)nccc12` (centres unmarked) [Compound (49), N-(2-amino-1-methylethyl)-1-hydroxy-5-isoquinolinesulfonamide]: the “ΔPmax (maximally reduced blood pressure)” value in assay [1] (50 mg/kg) worked out at 33 mmHg. Also, in assay [2], the EC50 turned out to be 14 µM.
For `CCCCC(CN)NS(=O)(=O)c1cccc2c(O)nccc12` (centres unmarked) [Compound (50), N-(1-aminomethylpentyl)-1-hydroxyl-5-isoquinolinesulfonamide] the same measures were 28 mmHg and 7 µM.
Taken in the same sequence, the figures for `CC(C)C(N)CNS(=O)(=O)c1cccc2c(O)nccc12` (centres unmarked) [Compound (51), N-(2-amino-3-methylbutyl)-1-hydroxy-5-isoquinolinesulfonamide] were 71 mmHg and 20 µM.
With `CCCCN(CCCC)CCCNS(=O)(=O)c1cccc2c(O)nccc12` [Compound (52), N-(3-di-n-butylaminopropyl)-1-hydroxy-5-isoquinolinesulfonamide], in assay [1] (50 mg/kg), the “ΔPmax (maximally reduced blood pressure)” value worked out at 65 mmHg. In assay [2], the EC50 was 21 µM.
For the compound `CN(CCNS(=O)(=O)c1cccc2c(O)nccc12)C1CCCCC1` [Compound (53), N-[2-(N-cyclohexyl-N-methylamino)ethyl]-1-hydroxy-5-isoquinolinesulfonamide], the “ΔPmax (maximally reduced blood pressure)” value in assay [1] (50 mg/kg) amounted to 56 mmHg. Further, the EC50 in assay [2] was 17 µM.
Turning to `N=C(N)NCCCCNS(=O)(=O)c1cccc2c(O)nccc12` [Compound (55), N-(4-guanidinobutyl)-1-hydroxy-5-isoquinolinesulfonamide], the “ΔPmax (maximally reduced blood pressure)” value in assay [1] (100 mg/kg) worked out at 38 mmHg. In assay [2], the EC50 stood at 13 µM.
For `CC(CNC(=N)N)NS(=O)(=O)c1cccc2c(O)nccc12` (centres unmarked) [Compound (56), N-(2-guanidino-1-methylethyl)-1-hydroxy-5-isoquinolinesulfonamide] the same measures were 45 mmHg and 14 µM.
Turning to `CCCCC(CNC(=N)N)NS(=O)(=O)c1cccc2c(O)nccc12` (centres unmarked) [Compound (57), N-(1-guanidinomethylpentyl)-1-hydroxy-5-isoquinolinesulfonamide], in assay [1] (100 mg/kg), the “ΔPmax (maximally reduced blood pressure)” value was 38 mmHg. Further, in assay [2], the EC50 was found to be 11 µM.
For `CC(C)C(CNS(=O)(=O)c1cccc2c(O)nccc12)NC(=N)N` (centres unmarked) [Compound (58), N-(2-guanidino-3-methylbutyl)-1-hydroxy-5-isoquinolinesulfonamide] the same measures were 41 mmHg and 15 µM.
Take `CC(CNC(=N)N)CNS(=O)(=O)c1cccc2c(O)nccc12` (centres unmarked) [Compound (59), N-(3-guanidino-2-methylpropyl)-1-hydroxy-5-isoquinolinesulfonamide]: the “ΔPmax (maximally reduced blood pressure)” value in assay [1] (100 mg/kg) came out at 52 mmHg. The EC50 in assay [2] came to 21 µM.
Taken in the same sequence, the figures for `CC(C)(CCNS(=O)(=O)c1cccc2c(O)nccc12)NC(=N)N` [Compound (60), N-(3-guanidino-3-methylbutyl)-1-hydroxy-5-isoquinolinesulfonamide] were 61 mmHg and 23 µM.
For `CC1CN(S(=O)(=O)c2cccc3c(O)nccc23)CCN1` (centres unmarked) [Compound (61), 1-(1-hydroxy-5-isoquinolinesulfonyl)-3-methylpiperazine] the same measures were 48 mmHg and 17 µM.
Taken in the same sequence, the figures for `CCC1CN(S(=O)(=O)c2cccc3c(O)nccc23)CCN1` (centres unmarked) [Compound (62), 1-(1-hydroxy-5-isoquinolinesulfonyl)-3-ethylpiperazine] were 36 mmHg and 25 µM.
As to `CC(C)CC1CN(S(=O)(=O)c2cccc3c(O)nccc23)CCN1` (centres unmarked) [Compound (63), 1-(1-hydroxy-5-isoquinolinesulfonyl)-3-isobutylpiperazine], the “ΔPmax (maximally reduced blood pressure)” value in assay [1] (100 mg/kg) is reported as 48 mmHg. Also, the EC50 in assay [2] came to 18 µM.
Taken in the same sequence, the figures for `CC1CN(S(=O)(=O)c2cccc3c(O)nccc23)C(C)CN1` (centres unmarked) [Compound (64), 1-(1-hydroxy-5-isoquinolinesulfonyl)-2,5-dimethylpiperazine] were 65 mmHg and 21 µM.
Regarding `CN1CCN(S(=O)(=O)c2cccc3c(O)nccc23)CC1` [Compound (65), 1-(1-hydroxy-5-isoquinolinesulfonyl)-4-methylpiperazine], the “ΔPmax (maximally reduced blood pressure)” value in assay [1] (100 mg/kg) was determined as 53 mmHg. Further, the EC50 in assay [2] amounted to 25 µM.
Taken in the same sequence, the figures for `N=C(N)N1CCN(S(=O)(=O)c2cccc3c(O)nccc23)CC1` [Compound (66), 1-(1-hydroxy-5-isoquinolinesulfonyl)-4-amidinopiperazine] were 43 mmHg and 4 µM.
With `N=C(N)N1CCCN(S(=O)(=O)c2cccc3c(O)nccc23)CC1` [Compound (67), 1-(1-hydroxy-5-isoquinolinesulfonyl)-4-amidinohomopiperazine], the “ΔPmax (maximally reduced blood pressure)” value in assay [1] (100 mg/kg) was found to be 44 mmHg. For the same compound, the EC50 in assay [2] was 6 µM.
Taken in the same sequence, the figures for `CC1CN(C(=N)N)CCN1S(=O)(=O)c1cccc2c(O)nccc12` (centres unmarked) [Compound (68), 1-(1-hydroxy-5-isoquinolinesulfonyl)-4-amidino-2-methylpiperazine] were 48 mmHg and 9 µM.
For `CC1CN(S(=O)(=O)c2cccc3c(O)nccc23)C(C)CN1C(=N)N` (centres unmarked) [Compound (69), 1-(1-hydroxy-5-isoquinolinesulfonyl)-4-amidino-2,5-dimethylpiperazine] the same measures were 51 mmHg and 8 µM.
Take `CCCCCCNCCNS(=O)(=O)c1cccc2c(Cl)nccc12` [Compound (74), N-(2-hexylaminoethyl)-1-chloro-5-isoquinolinesulfonamide]: the “ΔPmax (maximally reduced blood pressure)” value in assay [1] (100 mg/kg) worked out at 45 mmHg. Besides, the EC50 in assay [2] came to 2 µM.
Taken in the same sequence, the figures for `O=S(=O)(c1cccc2c(Cl)nccc12)N1CCCNCC1` [Compound (76), 1-(1-chloro-5-isoquinolinesulfonyl)homopiperazine] were 60 mmHg and 2 µM.
For `CCCCCCNCCNS(=O)(=O)c1cccc2c(O)nccc12` [Compound (81), N-(2-hexylaminoethyl)-1-hydroxy-5-isoquinolinesulfonamide] the same measures were 54 mmHg and 6 µM.

Source of the values: US4678783A, “Substituted isoquinolinesulfonyl compounds” (Asahi Kasei Kogyo Kabushiki Kaisha, priority 1984, dated 1987).
